Reference: patent US8741928B2, “Protected antimicrobial compounds for high temperature applications” (Dow Global Technologies LLC, priority 2010, dated 2014)

Experiments:
[1] = Analysis of glutaraldehyde release after heat-aging; format: physicochemical; conditions: sterile deionized water, molar equivalent of 2000 ppm glutaraldehyde, initial and after heat-aging at 55° C. for 2 h or 24 h; for Glutaraldehyde concentration after pre-column derivatization by HPLC: acidic derivatization
Experimental: Samples of the AMPD-adduct and TA-adduct are analyzed for glutaraldehyde content. Samples are prepared in sterile deionized water at the molar equivalent of 2000 ppm glutaraldehyde. A standard of 500 ppm glutaraldehyde is also prepared. An initial measurement is taken just after sample preparation. Samples are then heat-aged at 55° C. for 2 h or 24 h and analyzed again. Glutaraldehyde concentration is measured directly via GC and after pre-column derivatization by HPLC.

T. thermophilus = assay: Biocidal efficacy against thermophilic bacteria at 70° C.; format: cell-based; conditions: for Kill of bacteria maintained over 21 days: equivalent to 50 ppm glutaraldehyde, 4 hr exposure between challenge and enumeration, weekly challenges over 21 days
Experimental: b. Thermophilic Bacteria. A 48-72 hour old culture of T. thermophilus is pelleted by centrifuging at 2000 g and the pellet resuspended in 10 times the culture volume of buffer (PBS or carbonate-buffered synthetic freshwater). The suspension is distributed into 10 mL aliquots in glass screw-cap tubes. Each tube is then treated with glutaraldehyde or an adduct and incubated at 70° C. At indicated timepoints, cell density in each tube is measured via dilution to extinction by serially diluting a sample and plating dilutions on solid media.

CC12COC3CCCC(OC1)N32 (centres unmarked) [AMPD-adduct, 2a-methyloctahydro-1,4-dioxa-2a1-azacyclopenta[cd]indene]
Glutaraldehyde concentration measured directly via GC [1]: No glutaraldehyde is detected | Glutaraldehyde concentration after pre-column derivatization by HPLC [1]: low levels of glutaraldehyde | Kill of bacteria maintained over 21 days (T. thermophilus): 4 log

OCC12COC3CCCC(OC1)N32 (centres unmarked) [TA-adduct, (octahydro-1,4-dioxa-2a^1-azacyclopenta[cd]inden-2a-yl)methanol]
Glutaraldehyde concentration measured directly via GC [1]: No glutaraldehyde is detected | Glutaraldehyde concentration after pre-column derivatization by HPLC [1]: low levels of glutaraldehyde | Kill of bacteria maintained over 21 days (T. thermophilus): 4 log

O=CCCCC=O [glutaraldehyde, reference compound]
Control of bacterial levels after 5 days (T. thermophilus; equivalent of 100 ppm glutaraldehyde, after 5 days): fails to control bacterial levels | Kill of bacteria maintained over 21 days (T. thermophilus): 4 log
